target: human PDE2A1 (Homo sapiens (Human), UniProt O00408); test: PDE2 IMAP FP inhibition assay, human PDE2A1 (selectivity panel format); format: biochemical; conditions: Lab A; read-out: Human PDE2 Ki (nM) - Lab A
Experimental: Selectivity for PDE2, as compared to other PDE families, was assessed using the IMAP® technology. Human PDE10A2 enzyme was prepared from cytosolic fractions of transiently transfected HEK cells.
A Labcyte POD 810 (Labcyte, Sunnyvale, Calif.) was used to dispense 200 nL from each well of the titration plate to make eleven copies of the assay plate for each titration, one copy for each PDE enzyme. A solution of each enzyme (dilution from aliquots, sufficient to produce 20% substrate conversion) and a separate solution of FAM-labeled cAMP or FAM-labeled cGMP from Molecular Devices (Sunnyvale, Calif., product # R7506 or cGMP#R7508), at a final concentration of 50 nM were made in the assay buffer (10 mM Tris HCl, pH 7.2, 10 mM MgCl2, 0.05% NaN3 0.01% Tween-20, and 1 mM DTT). Note that the substrate for PDE2 is 50 nM FAM cAMP containing 1000 nM of cGMP. The enzyme and the substrate were then added to the assay plates in two consecutive additions of 10 μL and then shaken to mix. The reaction was allowed to proceed at room temperature for 60 minutes. A binding solution was then made from the kit components, comprised of 80% Solution A, 20% Solution B and binding reagent at a volume of 1/600 the total binding solution. The enzymatic reaction was stopped by addition of 60 μL of the binding solution to each well of the assay plate. The plates were sealed and shaken for 10 seconds. The plates were incubated at room temperature for one hour, then the parallel and perpendicular fluorescence was measured using a Tecan Genios Pro plate reader (Tecan, Switzerland). […] The intrinsic PDE2 inhibitory activity of a compound which may be used in accordance with the present invention may be determined by these assays. […]

Chain of human PDE2A1 (O00408 other isoform, or with tags, fused parts or gaps): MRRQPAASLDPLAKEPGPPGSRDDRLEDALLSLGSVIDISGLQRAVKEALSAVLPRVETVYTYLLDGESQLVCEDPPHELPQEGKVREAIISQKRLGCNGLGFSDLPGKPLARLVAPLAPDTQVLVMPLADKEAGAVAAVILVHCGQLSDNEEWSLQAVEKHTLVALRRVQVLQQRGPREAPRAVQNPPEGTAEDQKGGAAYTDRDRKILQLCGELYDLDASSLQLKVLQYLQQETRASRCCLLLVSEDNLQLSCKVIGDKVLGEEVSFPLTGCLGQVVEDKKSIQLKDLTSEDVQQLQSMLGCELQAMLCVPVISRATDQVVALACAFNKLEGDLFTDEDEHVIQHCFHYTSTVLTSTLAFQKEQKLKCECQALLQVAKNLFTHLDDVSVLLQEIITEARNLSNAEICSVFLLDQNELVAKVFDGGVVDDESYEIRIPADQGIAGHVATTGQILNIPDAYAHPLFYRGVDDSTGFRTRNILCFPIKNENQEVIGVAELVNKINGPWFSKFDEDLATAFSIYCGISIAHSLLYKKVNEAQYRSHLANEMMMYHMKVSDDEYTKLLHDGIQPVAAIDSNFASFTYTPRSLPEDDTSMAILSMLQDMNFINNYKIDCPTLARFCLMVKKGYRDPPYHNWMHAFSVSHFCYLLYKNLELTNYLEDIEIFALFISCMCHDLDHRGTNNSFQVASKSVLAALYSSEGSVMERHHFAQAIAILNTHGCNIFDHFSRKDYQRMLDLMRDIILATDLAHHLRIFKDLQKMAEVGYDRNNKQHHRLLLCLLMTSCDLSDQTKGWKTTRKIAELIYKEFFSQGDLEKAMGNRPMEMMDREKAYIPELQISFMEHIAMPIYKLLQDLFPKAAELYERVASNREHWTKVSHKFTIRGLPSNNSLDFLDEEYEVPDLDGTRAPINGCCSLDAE

SMILES	Ki
CC(C)[C@@H](NC(=O)c1cc(=O)[nH]c(N2CC[C@@H](O)C2)n1)c1ccc(OC(F)(F)F)c(F)c1 [Example 166, N-{(1R)-1-[3-fluoro-4-(trifluoromethoxy)phenyl]-2-methylpropyl}-2-[(3R)-3-hydroxypyrrolidin-1-yl]-6-oxo-1,6-dihydropyrimidine-4-carboxamide]	1.3 nM

same assay, conditions: Lab B; read-out: Human PDE2 Ki (nM) - Lab B

SMILES	Ki
CN(C)c1nc(C(=O)NC(c2ccccc2)c2ccc(C(F)(F)F)cc2)cc(=O)[nH]1 (stereo not shown) [Example 195, 2-(dimethylamino)-6-oxo-N-{phenyl[4-(trifluoromethyl)phenyl]methyl}-1,6-dihydropyrimidine-4-carboxamide]	81 nM
CN(C)c1nc(C(=O)NC(c2ccncc2)c2ccc(C(F)(F)F)cc2)cc(=O)[nH]1 (stereo not shown) [Example 196, 2-(dimethylamino)-6-oxo-N-{pyridin-4-yl[4-(trifluoromethyl)phenyl]methyl}-1,6-dihydropyrimidine-4-carboxamide]	91 nM
CN(C)c1nc(C(=O)N[C@H]2COCc3cc(C(F)(F)F)ccc32)cc(=O)[nH]1 [Example 198, 2-(dimethylamino)-6-oxo-N-[(4R)-7-(trifluoromethyl)-3,4-dihydro-1H-isochromen-4-yl]-1,6-dihydropyrimidine-4-carboxamide]	863 nM
CN(C)c1nc(C(=O)NC(C#N)c2ccc(C(F)(F)F)cc2)cc(=O)[nH]1 (stereo not shown) [Example 199, N-{cyano[4-(trifluoromethyl)phenyl]methyl}-2-(dimethylamino)-6-oxo-1,6-dihydropyrimidine-4-carboxamide]	27 nM
CN(C)c1nc(C(=O)NC2(c3ccc(OC(F)(F)F)cc3)CCC2)cc(=O)[nH]1 [Example 201, 2-(dimethylamino)-6-oxo-N-{1-[4-(trifluoromethoxy)phenyl]cyclobutyl}-1,6-dihydropyrimidine-4-carboxamide]	18 nM
CN(C)c1nc(C(=O)NC(CC#N)c2ccc(C(F)(F)F)cc2)cc(=O)[nH]1 (stereo not shown) [Example 203, N-{2-cyano-1-[4-(trifluoromethyl)phenyl]ethyl}-2-(dimethylamino)-6-oxo-1,6-dihydropyrimidine-4-carboxamide]	22 nM
CN(C)c1nc(C(=O)N[C@H]2CCCc3cc(C(F)(F)F)ccc32)cc(=O)[nH]1 [Example 204, 2-(dimethylamino)-6-oxo-N-[(1S)-6-(trifluoromethyl)-1,2,3,4-tetrahydronaphthalen-1-yl]-1,6-dihydropyrimidine-4-carboxamide]	129 nM
COC(=O)C(NC(=O)c1cc(=O)[nH]c(N(C)C)n1)c1ccc(C(F)(F)F)cc1 (stereo not shown) [Example 205, methyl ({[2-(dimethylamino)-6-oxo-1,6-dihydropyrimidin-4-yl]carbonyl}amino)[4-(trifluoromethyl)phenyl]acetate]	49 nM
CN(C)c1nc(C(=O)NC2(c3ccc(C(F)(F)F)cc3)COC2)cc(=O)[nH]1 [Example 212, 2-(dimethylamino)-6-oxo-N-{3-[4-(trifluoromethyl)phenyl]oxetan-3-yl}-1,6-dihydropyrimidine-4-carboxamide]	9.2 nM

Other lines, results leading:

Ki	SMILES
7.2 nM	CN(C)c1nc(C(=O)NC(CO)c2ccc(C(F)(F)F)cc2)cc(=O)[nH]1 (stereo not shown) [Example 206, 2-(dimethylamino)-N-{2-hydroxy-1-[4-(trifluoromethyl)phenyl]ethyl}-6-oxo-1,6-dihydropyrimidine-4-carboxamide]
5.4 nM	CN(C)c1nc(C(=O)NC2(c3ccc(C(F)(F)F)cc3)CCCC2)cc(=O)[nH]1 [Example 202, 2-(dimethylamino)-6-oxo-N-{1-[4-(trifluoromethyl)phenyl]cyclopentyl}-1,6-dihydro-pyrimidine-4-carboxamide]
3.9 nM	CN(C)c1nc(C(=O)N[C@@](C)(CO)c2ccc(C(F)(F)F)cc2Cl)cc(=O)[nH]1 [Example 209, N-{(1R)-1-[2-chloro-4-(trifluoromethyl)phenyl]-2-hydroxy-1-methylethyl}-2-(dimethylamino)-6-oxo-1,6-dihydropyrimidine-4-carboxamide]
3.6 nM	CC(=O)C(NC(=O)c1cc(=O)[nH]c(N(C)C)n1)c1ccc(C(F)(F)F)cc1 (stereo not shown) [Example 197, 2-(dimethylamino)-6-oxo-N-{2-oxo-1-[4-(trifluoromethyl)phenyl]propyl}-1,6-dihydropyrimidine-4-carboxamide]
2.9 nM	CN(C)c1nc(C(=O)NC(c2ccc(C(F)(F)F)cc2)C(F)(F)F)cc(=O)[nH]1 (stereo not shown) [Example 207, 2-(dimethylamino)-6-oxo-N-{2,2,2-trifluoro-1-[4-(trifluoromethyl)phenyl]ethyl}-1,6-dihydropyrimidine-4-carboxamide]
0.54 nM	CN(C)c1nc(C(=O)N[C@@H](c2ccc(OC(F)(F)F)cc2Cl)C(C)(C)O)cc(=O)[nH]1 [Example 210, N-{(1S)-1-[2-chloro-4-(trifluoromethoxy)phenyl]-2-hydroxy-2-methylpropyl}-2-(dimethylamino)-6-oxo-1,6-dihydropyrimidine-4-carboxamide]
0.52 nM	CN(C)c1nc(C(=O)N[C@](C)(CO)c2ccc(C(F)(F)F)cc2Cl)cc(=O)[nH]1 [Example 200, N-{(1S)-1-[2-chloro-4-(trifluoromethyl)phenyl]-2-hydroxy-1-methylethyl}-2-(dimethylamino)-6-oxo-1,6-dihydropyrimidine-4-carboxamide]
0.12 nM	CN(C)c1nc(C(=O)N[C@@H](c2ccc(OC(F)(F)F)c(F)c2)C(C)(C)O)cc(=O)[nH]1 [Example 208, 2-(dimethylamino)-N-{(1S)-1-[3-fluoro-4-(trifluoromethoxy)phenyl]-2-hydroxy-2-methylpropyl}-6-oxo-1,6-dihydropyrimidine-4-carboxamide]
0.073 nM	CN(C)c1nc(C(=O)N[C@@H](c2ccc(S(F)(F)(F)(F)F)cc2)C(C)(C)O)cc(=O)[nH]1 [Example 211, 2-(dimethylamino)-N-{(1S)-2-hydroxy-2-methyl-1-[4-(pentafluoro-λ^6-sulfanyl)phenyl]propyl}-6-oxo-1,6-dihydropyrimidine-4-carboxamide]

Source: patent US10285989B2, “Pyrimidinone amide compounds as PDE2 inhibitors” (Merck Sharp & Dohme Corp., priority 2015, dated 2019)
